Several values for one entry are separate records, joined by “and”; a condition that tells them apart may be missing. Identical values can stand only once.
Legend:
[1] = molecular target: T1, human IL-2Rβ (Homo sapiens, UniProt P14784); assay: Biacore binding to human IL-2Rβ-Fc
T1 construct: purchased
T1 sequence (P14784 27-551): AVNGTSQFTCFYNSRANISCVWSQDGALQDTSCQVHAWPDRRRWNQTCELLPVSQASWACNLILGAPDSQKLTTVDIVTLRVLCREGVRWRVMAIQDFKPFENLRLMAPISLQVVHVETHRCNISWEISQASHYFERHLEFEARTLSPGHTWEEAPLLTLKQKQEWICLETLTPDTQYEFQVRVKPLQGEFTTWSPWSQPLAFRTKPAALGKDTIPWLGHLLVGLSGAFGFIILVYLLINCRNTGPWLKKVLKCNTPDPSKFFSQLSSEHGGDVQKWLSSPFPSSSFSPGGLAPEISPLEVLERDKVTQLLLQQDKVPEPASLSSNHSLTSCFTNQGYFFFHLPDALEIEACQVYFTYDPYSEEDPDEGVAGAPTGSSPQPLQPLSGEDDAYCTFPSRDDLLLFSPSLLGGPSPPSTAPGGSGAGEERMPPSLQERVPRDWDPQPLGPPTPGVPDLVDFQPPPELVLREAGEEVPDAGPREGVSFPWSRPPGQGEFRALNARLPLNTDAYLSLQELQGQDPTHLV
Experimental: (§1) Binding affinity/kinetics needed to determine the KD of biased IL-2 to IL-2Rα, the KD of biased IL-2 to IL-2Rβ, the KD of aldesleukin to IL-2Rα and the KD of aldesleukin to IL-2Rβ may be assessed using surface plasmon resonance (SPR), measured on a Biacore instrument (GE Healthcare) as follows: A human Fc capture surface on a CM5 (or alternatively C1 or CM4) chip is prepared by covalent coating with anti-human Fc antibody or alternatively a protein A chip is used. Next, IL-2Rβ-Fc or IL2-Rα-Fc is immobilized on the chip. […] Analytes are each exposed to the receptor-modified chip for a suitable amount of time, such as for 1 to 30 minutes, which may for example be 2 minutes or may be 3 minutes and are then washed away for a suitable amount of time, such as 2 to 60 minutes, which may for example be 10 minutes. The resulting binding curves from the dilution series are fit to a 1:1 kinetic model to correlate observed response units (R) to the association and dissociation rate constants, ka and kd: […]

[2] = system: IL-5; assay: Serum IL-5 cytokine levels (ELISA or MSD) in treated Cynos; type: in vivo, Cynomolgus macaques; settings: ~0.044 mg/kg IV x5 daily
Experimental: Two studies were conducted to measure the pharmacodynamic effects of either Aldesleukin (Prometheus, National Drug Code 65483011607) (SEQ ID NO:15) 11 or 5 in Cynos. In the first study, four Cynos ranging in weight from 7.77-10.6 kg (average 9.2 kg) were treated intravenously with five sequential daily 0.4 mg doses of 11 on days 1-5 (average mg/kg: 0.044). In the second study, four Cynos ranging in weight from 2.46-3.69 kg (average 3.13 kg) were treated with a single intravenous dose of either 0.1 mg/kg (n=2) or 0.3 mg/kg (n=2) of 5. All animals were chair trained prior to the study. For both studies, peripheral blood samples were taken before and after treatment at various timepoints as indicated and analyzed for lymphocyte counts, eosinophil counts and cytokines. For animals treated with 5, additional flow cytometry experiments were performed. For measurements of (absolute) lymphocyte counts and eosinophil counts, whole blood was processed on hematology analyzers. For IL-5 and IL-6 cytokine measurements, serum was processed from whole blood and analyzed by ELISA or MSD. […] Cell populations were analyzed using the following phenotypes and gated for percentage of cells which were positive for proliferation marker Ki67.

[3] = system: peripheral blood lymphocytes and eosinophils; assay: Peripheral blood lymphocyte and eosinophil counts (hematology analyzers) in treated Cynos; type: in vivo, Cynomolgus macaques; settings: ~0.044 mg/kg IV x5 daily
Experimental: (§2) Two studies were conducted to measure the pharmacodynamic effects of either Aldesleukin (Prometheus, National Drug Code 65483011607) (SEQ ID NO:15) 11 or 5 in Cynos. In the first study, four Cynos ranging in weight from 7.77-10.6 kg (average 9.2 kg) were treated intravenously with five sequential daily 0.4 mg doses of 11 on days 1-5 (average mg/kg: 0.044). In the second study, four Cynos ranging in weight from 2.46-3.69 kg (average 3.13 kg) were treated with a single intravenous dose of either 0.1 mg/kg (n=2) or 0.3 mg/kg (n=2) of 5. All animals were chair trained prior to the study. For both studies, peripheral blood samples were taken before and after treatment at various timepoints as indicated and analyzed for lymphocyte counts, eosinophil counts and cytokines. For animals treated with 5, additional flow cytometry experiments were performed. For measurements of (absolute) lymphocyte counts and eosinophil counts, whole blood was processed on hematology analyzers. For IL-5 and IL-6 cytokine measurements, serum was processed from whole blood and analyzed by ELISA or MSD. For flow cytometry measurements (Immunophenotyping, IPT, FACS), Cynomolgus monkey whole blood was collected in EDTA anticoagulant and kept at room temperature until processed for flow cytometry. Blood was lysed and samples were stained for extracellular surface markers and intracellular phenotypic and lineage markers by standard methods. Cell populations were analyzed using the following phenotypes and gated for percentage of cells which were positive for proliferation marker Ki67.

[4] = system: IL-6; assay: Serum IL-6 cytokine levels (ELISA or MSD) in treated Cynos; type: in vivo, Cynomolgus macaques; settings: ~0.044 mg/kg IV x5 daily
Experimental: as §2

[5] = molecular target: T2, human IL-2Rα (Homo sapiens, UniProt P01589); assay: Biacore binding to human IL-2Rα-Fc; settings: independent measurement
T2 construct: purchased
T2 sequence (P01589 22-272): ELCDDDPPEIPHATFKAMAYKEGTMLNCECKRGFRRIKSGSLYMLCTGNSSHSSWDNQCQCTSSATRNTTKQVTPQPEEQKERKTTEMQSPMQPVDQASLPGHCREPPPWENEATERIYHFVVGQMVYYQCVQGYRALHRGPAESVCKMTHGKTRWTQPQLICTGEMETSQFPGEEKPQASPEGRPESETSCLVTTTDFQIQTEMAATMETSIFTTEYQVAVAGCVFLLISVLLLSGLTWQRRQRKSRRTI
Experimental: as §1

[6] = system: pSTAT5 in Tregs, CD8+ T cells, NK cells; assay: pSTAT5 in lymphocyte subsets of whole cynomolgus monkey blood (flow cytometry); type: cell-based
Experimental: (§3) To evaluate the cell type specific immunostimulatory effects of 3 in primary human or monkey cells, whole human or cynomolgus monkey blood from two donors each was incubated with various concentrations of 3 or 13 for 30 minutes and analyzed by flow cytometry for intracellular levels of phosphorylated STAT5 (pSTAT5) in unique cell subsets such as Tregs which predominately express IL-2Rα/β/γ as well as CD8+ T cells (CD8) and NK cells which predominately express IL-2Rβ/γ. Additionally, CD8^+ T cells were further analyzed for CD8^+ CD45RA^+ Naïve (CD8 N) as well as CD8^+ CD45RA^− Memory (CD8 M) subsets. Similar experiments were performed with mouse blood using a different panel of mouse specific antibodies. All subsets were analyzed for median fluorescence intensities of pSTAT5 and EC50 values were calculated for each compound across all cell types.

[7] = system: pSTAT5 in Tregs, CD8+ T cells, NK cells; assay: pSTAT5 in lymphocyte subsets of whole human blood (flow cytometry); type: cell-based
Experimental: as §3

[8] = system: pSTAT5 in Tregs, CD8+ T cells, NK cells; assay: pSTAT5 in lymphocyte subsets of mouse blood (flow cytometry); type: cell-based
Experimental: [The source words this procedure for another organism and says it was used here with some conditions changed.] as §3, with “Similar experiments were performed with mouse blood using a different panel of mouse specific antibodies.” left out

11: Aldesleukin, recombinant human Interleukin-2 (SEQ ID NO:15) [Compound 11]
KD for IL-2Rβ compared with 12 ([1]; independent measurement): highly comparable KD values | average serum peak IL-5 levels [2]: 117.78 pg/mL | IL-5 ([2]; Study Day -3): 0.28 pg/mL and 0.1895 pg/mL and 0.2445 pg/mL and 0.233 pg/mL | average fold increase in eosinophil counts ([3]; Day 8): 6.92 fold | average fold increase in lymphocyte counts ([3]; Day 8): 2.77 fold | average fold increase in eosinophil counts ([3]; Day 10): 5.94 fold | average fold increase in lymphocyte counts ([3]; Day 10): 2.79 fold | Lymphocyte Counts ([3]; Study Day 1): 4995 µL⁻¹ and 4670.6 µL⁻¹ and 4845 µL⁻¹ and 4617.6 µL⁻¹ | Lymphocyte Counts ([3]; Study Day 4): 3739.1 µL⁻¹ and 2646 µL⁻¹ and 2703.2 µL⁻¹ and 3034 µL⁻¹ | Lymphocyte Counts ([3]; Study Day 5): 4144.5 µL⁻¹ and 3990 µL⁻¹ and 3784 µL⁻¹ | Lymphocyte Counts ([3]; Study Day 8): 11186 µL⁻¹ and 11088 µL⁻¹ and 8086 µL⁻¹ and 14958 µL⁻¹ | Lymphocyte Counts ([3]; Study Day 9): 10260 µL⁻¹ and 10045 µL⁻¹ and 9548 µL⁻¹ and 13878 µL⁻¹ | Lymphocyte Counts ([3]; Study Day 10): 8316 µL⁻¹ and 10664 µL⁻¹ and 12079 µL⁻¹ and 14885 µL⁻¹ | Lymphocyte Counts ([3]; Study Day 11): 7304 µL⁻¹ and 9640 µL⁻¹ and 8736 µL⁻¹ and 7720 µL⁻¹ | Lymphocyte Counts ([3]; Study Day 12): 5652 µL⁻¹ and 9520 µL⁻¹ and 8325 µL⁻¹ and 7518 µL⁻¹ | Lymphocyte Counts ([3]; Study Day 15): 6720 µL⁻¹ and 9700 µL⁻¹ and 5468.3 µL⁻¹ and 6198.4 µL⁻¹ | Lymphocyte Counts ([3]; Study Day 19): 2385.6 µL⁻¹ and 3965.5 µL⁻¹ and 2067 µL⁻¹ and 3139.5 µL⁻¹ | Lymphocyte Counts ([3]; Study Day -4 (Baseline)): 4032 µL⁻¹ and 4514.4 µL⁻¹ and 4189.5 µL⁻¹ and 3564 µL⁻¹ | Lymphocyte Counts ([3]; Study Day -5 (Baseline)): 4074 µL⁻¹ and 3530.6 µL⁻¹ and 4719 µL⁻¹ and 4376.3 µL⁻¹ | average serum peak IL-6 levels [4]: 58.66 pg/mL | IL-6 ([4]; Study Day 2.25): 6.79 pg/mL and 9.02 pg/mL and 7.69 pg/mL and 9.95 pg/mL | IL-6 ([4]; Study Day 5): 0.75 pg/mL and 0.81 pg/mL and 0.46 pg/mL and 0.48 pg/mL | IL-6 ([4]; Study Day 5.25): 3.67 pg/mL and 3.59 pg/mL and 2.42 pg/mL and 4.21 pg/mL | KD for IL-2Rα compared with 12 [5]: highly comparable KD values

12: unbiased control recombinant human IL-2 (SEQ ID NO:45) [Compound 12]
Kd ([1]; Biacore): ~500 nM

13: his-tagged mammalian expressed control human IL-2 (SEQ ID NO:46) [Compound 13]
Fold Potency Loss vs Human, Treg ([6]; cynomolgus monkey Treg vs human Treg, pSTAT5 EC50): 1 | pSTAT5 EC50, Treg ([6]; whole cynomolgus monkey blood, 30 minutes, Treg): 0.09 ng/mL | pSTAT5 EC50, CD8 ([7]; additional human blood experiments (Table 29), CD8): 4.94 ng/mL | pSTAT5 EC50, NK ([7]; additional human blood experiments (Table 29), NK): 17.59 ng/mL | pSTAT5 EC50, Treg ([7]; additional human blood experiments (Table 29), Treg): 0.047 ng/mL | EC50 for pSTAT5 in NK cells ([7]; human blood, 30 minutes): 6.01 ng/ml | EC50 for pSTAT5 in Tregs ([7]; human blood, 30 minutes): 0.09 ng/ml | pSTAT5 EC50, CD8 ([7]; whole human blood, 30 minutes, CD8+ T cells (Table 27)): 25.69 ng/mL | Fold Potency Loss vs Human, CD8 ([8]; mouse CD8 vs human CD8, pSTAT5 EC50): 935.79 | Fold Potency Loss vs Human, NK ([8]; mouse NK vs human NK, pSTAT5 EC50): 1613.10 | Fold Potency Loss vs Human, Treg ([8]; mouse Treg vs human Treg, pSTAT5 EC50): 4.11 | EC50 for pSTAT5 in NK cells ([8]; mouse blood): 9,694.74 ng/ml | EC50 for pSTAT5 in Tregs ([8]; mouse blood): 0.37 ng/ml | pSTAT5 EC50, CD8 ([8]; mouse blood, CD8+ T cells): 24,040.56 ng/mL

— patent publication US11879001B2, “Conjugate comprising an IL-2 moiety” (ASCENDIS PHARMA ONCOLOGY DIVISION A/S, priority 2020, dated 2024)
